Results on eight compounds are retold here after patent publication US20150175655A1 (priority 2012, published 2015).

pEC50, pKi: −log10 of the molar value. Like-named read-outs stand apart in the source and are kept apart here.

For data set [1] the following is noted: rcm bond, Zhan 1B, DCE.
The target in the next data set is T1, NS3 genotype 1b protease (Hepatitis C virus genotype 1b, UniProt Q9WMX2, E1202G).
T1 construct: Purified NS3 protease domain (amino acids 1-181) of the genotype 1b and 3a virus were generated as above; K3 hexahistidine tag (N); rTEV protease cleavage site (N); made in house; host or cells: E. coli BL21AI, pET28 vector p28-N6H-Tev-NS3(181)1b
Kind of data set: Ki determination, NS3 protease genotype 1b (fluorogenic depsipeptide substrate). Format: biochemical. The source says:
The coding sequence of the genotype 1b (con-1 strain) HCV NS3 protease domain was PCR amplified from a plasmid encoding the I389luc-ubi-neo/NS3-3′/ET replicon (Reblikon, Mainz, Germany). The 5′-PCR primer was designed to encode an N-terminal K3 hexahistidine tag and to insert an in-frame recombinant Tobacco Etch virus (rTEV) protease cleavage site into the NS3 coding sequence. The resulting DNA fragment was cloned into the pET28 protein expression vector (Invitrogen, Carlsbad, Calif.) yielding the p28-N6H-Tev-NS3(181)1b.
BL21AI bacteria (Invitrogen, Carlsbad, Calif.) were transformed with genotype 1b or 3 NS3 expression vectors and used to inoculate a 20 L fermentation vessel (Sartorius BBI System Inc., Bethlehem, Pa.), containing 18 L of fresh 2YT medium supplemented with 50 μg/mL kanamycin. When cell densities reached an OD600 of 1, the temperature of the cultures was reduced from 37° C. to 28° C. and induction was immediately initiated by the addition of 30 μM ZnSO4, 14 mM L-arabinose and 1 mM Isopropyl β-D-thiogalactoside (IPTG) final concentrations. Cells were harvested by centrifugation four hours post-induction and were stored as frozen pellets at −80° C. prior to NS3 protein purification.
Cell pellets were thawed and resuspended at 10 mL/g cells in lysis buffer containing 50 mM tris pH 7.6, 300 mM NaCl, 0.1% 3-[(3-cholamidopropyl)dimethylammonio]-1-propanesulfonate (CHAPS), 5% glycerol, and 2 mM β-mercaptoethanol. Cell suspensions were then sonicated, filtered through cheesecloth, and passed three times through a microfluidizer at 18,000 pounds/in^2. The resulting lysates were centrifuged at 15500 rpm for 45 minutes and supernatants were loaded onto a HisTrap HP column (GE Lifesciences) pre-equilibrated with five volumes of Ni buffer A (50 mM tris pH 7.6, 300 mM NaCl, 0.1% CHAPS, 5% glycerol, 2 mM β-mercaptoethanol, 50 mM imidazole-HCl). Proteins were eluted with a 0-100% gradient of Ni buffer A plus 500 mM imidazole-HCl and fractions were collected and pooled. The HisTrap pool was diluted 1:10 with SP-A buffer (50 mM tris pH 7.0, 10% glycerol, 2 mM dithiothreitol (DTT)) and loaded onto a HiTrap SP-HP column (GE Lifesciences) equilibrated with SP-A buffer. NS3 protease was eluted with a 0-100% SP-B buffer (SP-A buffer plus 1 M NaCl) gradient. Concentrated pools of NS3-containing SP fractions were aliquoted, snap frozen in liquid nitrogen and stored at −80° C.
Purified NS3 protease domain (amino acids 1-181) of the genotype 1b and 3a virus were generated as above.
Reactions were run at room temperature in buffer consisting of 50 mM HEPES, 40% glycerol, 0.05% Triton X-100, 10 mM DTT, and 10% DMSO. The final assay solutions contained 50 pM NS3 genotype 1b protease or 200 pM genotype 3a protease, 20 μM NS4A peptide, and 4 μM substrate (genotype 1 b) or 2 μM substrate (genotype 3a). Inhibitor concentrations varied from 100 nM to 5 pM in 3-fold dilutions, and no-inhibitor controls were included.
Compound dilutions were made in DMSO at 20× final concentration. Reaction mixtures were prepared in 96-well assay plates. A solution of enzyme and NS4A peptide in assay buffer (25 μL volume with both reagents at 4× final concentration) was mixed with 45 μL assay buffer and 5 μL of either inhibitor or DMSO, and pre-incubated at room temperature for 1 hour. The reaction was started by addition of 25 μL substrate solution at 4× final concentration. Plates were mixed vigorously for 5-10 seconds and reactions were allowed to proceed for 90 minutes. fluorescence was measured every 30 s between 90 and 120 minutes reaction time using a Tecan InfiniTe M1000 or PerkinElmer Envision multimode plate reader with an excitation wavelength of 340 nm and an emission wavelength of 490 nm.
To determine the K, rates were plotted as a function of inhibitor concentration, and the data were fit with equation 1 (Morrison, J. F., Biochimica et Biophysica Acta 1969, 185, 269-286) to calculate Ki^app using GraphPad Prism 5.

Data set [2] has as its system genotype 1b (Con1) wild-type transient HCV replicon in Huh-7-derived cells. Kind of data set: Transient-transfected HCV replicon EC50, genotype 1b wild type. In kind it is cell-based. As to conditions: Hepatitis C virus; transient-transfected replicon genotype 1b wild type, 72 h; read-out: EC50 1B WT.
Data set [3] has as its system genotype 1a transient HCV replicon, NS3/4a protease inhibitor resistant variant R155K, in Huh-7-derived cells. Kind of data set: Transient-transfected HCV replicon EC50, genotype 1a R155K. In kind it is cell-based. As to conditions: Hepatitis C virus, 72 h, read-out: EC50 1A R155K. On the technique in general: Replicon systems follow genome replication, usually without infectious particles.

The subject of data set [4] is genotype 1a (H77) wild-type transient HCV replicon in Huh-7-derived cells. Kind of data set: Transient-transfected HCV replicon EC50, genotype 1a wild type. As to conditions: Hepatitis C virus; transient-transfected replicon genotype 1a wild type, 72 h; read-out: EC50 1A WT. In kind it is cell-based.
The test system of data set [5] is genotype 1b transient HCV replicon, NS3/4a protease inhibitor resistant variant D168A, in Huh-7-derived cells. Kind of data set: Transient-transfected HCV replicon EC50, genotype 1b D168A. Format: cell-based. As to conditions: Hepatitis C virus, 72 h, read-out: EC50 1B D168A.
A further data set has as its target T2, NS3 genotype 3a protease (UniProt Q81258).
T2 construct: Purified NS3 protease domain (amino acids 1-181) of the genotype 1b and 3a virus were generated as above; fused on or other part: N-terminal hexahistidine tag and rTEV protease cleavage site (vector p28-N6H-Tev-NS3(181)3)
T2 sequence (Q81258 1033-1663): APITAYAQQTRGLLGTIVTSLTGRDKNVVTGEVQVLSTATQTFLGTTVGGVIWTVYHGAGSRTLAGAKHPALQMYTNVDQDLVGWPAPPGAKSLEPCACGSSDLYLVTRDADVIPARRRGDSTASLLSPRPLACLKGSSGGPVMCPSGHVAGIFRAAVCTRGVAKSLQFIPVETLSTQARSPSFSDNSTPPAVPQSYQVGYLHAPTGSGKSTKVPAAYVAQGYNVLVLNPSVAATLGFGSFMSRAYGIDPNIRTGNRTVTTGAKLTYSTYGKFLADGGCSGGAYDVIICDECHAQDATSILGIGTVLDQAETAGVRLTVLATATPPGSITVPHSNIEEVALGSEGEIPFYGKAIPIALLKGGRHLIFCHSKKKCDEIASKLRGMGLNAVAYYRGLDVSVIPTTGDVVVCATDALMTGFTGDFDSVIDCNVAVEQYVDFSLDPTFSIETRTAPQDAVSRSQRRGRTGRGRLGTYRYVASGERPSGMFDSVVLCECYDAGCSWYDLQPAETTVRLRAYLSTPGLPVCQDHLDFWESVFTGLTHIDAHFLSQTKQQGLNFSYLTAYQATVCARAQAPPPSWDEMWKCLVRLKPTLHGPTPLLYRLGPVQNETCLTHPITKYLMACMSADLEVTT
Kind of data set: Ki determination, NS3 protease genotype 3a (fluorogenic depsipeptide substrate). In kind it is biochemical, hepatitis C virus. As to conditions: 200 pM enzyme, 20 μM NS4A peptide, 2 μM substrate, read-out: Ki 3A. Put shortly:
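Refolded His-tagged NS3 protease domain (aa 1-181, genotype 3a) at 200 pM with 20 μM NS4A peptide was pre-incubated 1 h at RT with inhibitor (100 nM–5 pM, 3-fold), then 2 μM FRET depsipeptide substrate was added in HEPES/40% glycerol/10% DMSO buffer. Steady-state rates over 90-120 min (ex 340/em 490 nm) versus inhibitor concentration gave Ki.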

The term pKi denotes the negative decadic logarithm of the Ki, by convention in mol/L. What is called pEC50 is the negative decadic logarithm of the EC50, by convention in mol/L.

For `CC[C@@H]1[C@@H]2CN(C(=O)[C@H](C(C)(C)C)NC(=O)OC3(C(F)(F)F)CCCC3CCCC=Cc3nc4ccc(OC)cc4nc3O2)[C@@H]1C(=O)OC(C)(C)C` (stereo partly drawn), in data set [1] (from C=CCCCC1CCCC1(OC(=O)N[C@H](C(=O)N1C[C@H](Oc2nc3cc(OC)ccc3nc2C=C)[C@@H](CC)[C@H]1C(=O)OC(C)(C)C)C(C)(C)C)C(F)(F)F, 5.0 mM, 100.0 °C, 0.5 h), the ring closure, yield of all isomers was 84.7%.
Compound `CC[C@@H]1[C@@H]2CN(C(=O)[C@H](C(C)(C)C)NC(=O)O[C@@H]3[C@H]4CC[C@H](C4)[C@H]3CCCC=Cc3nc4ccc(OC)cc4nc3O2)[C@@H]1C(=O)OC(C)(C)C` came in with a ring closure, yield of all isomers in data set [1] (from C=CCCCC1C2CCC(C2)C1OC(=O)N[C@H](C(=O)N1C[C@H](Oc2nc3cc(OC)ccc3nc2C=C)[C@@H](CC)[C@H]1C(=O)OC(C)(C)C)C(C)(C)C, 4.0 mM, 100.0 °C, 0.75 h) of 45.2%.
In data set [1] (from C=CCCC[C@@H]1CCC[C@@]1(C)OC(=O)N[C@H](C(=O)N1C[C@H](Oc2nc3cc(OC)ccc3nc2C=C)[C@@H](CC)[C@H]1C(=O)OC)C(C)(C)C, 19.9 mM, 80.0 °C, […]), `CC[C@@H]1[C@@H]2CN(C(=O)[C@H](C(C)(C)C)NC(=O)O[C@]3(C)CCC[C@H]3CCCC=Cc3nc4ccc(OC)cc4nc3O2)[C@@H]1C(=O)OC` returned a ring closure, yield of all isomers of 77.2%.
`COc1ccc2nc3c(nc2c1)O[C@H]1CN(C(=O)[C@H](C(C)(C)C)NC(=O)O[C@@H]2CCC[C@H]2CCCC=C3)[C@H](C(=O)OC(C)(C)C)[C@@H]1C`: the ring closure, yield of all isomers in data set [1] (from C=CCCC[C@@H]1CCC[C@H]1OC(=O)N[C@H](C(=O)N1C[C@H](Oc2nc3cc(OC)ccc3nc2C=C)[C@@H](C)[C@H]1C(=O)OC(C)(C)C)C(C)(C)C, 4.97 mM, 83.0 °C, […]) is 78.5%.
For the compound `COc1ccc2nc3c(nc2c1)O[C@H]1CN(C(=O)[C@H](C(C)(C)C)NC(=O)O[C@@H]2C[C@@H]4C[C@@H]4[C@H]2CCCC=C3)[C@H](C(=O)OC(C)(C)C)[C@@H]1C`, in data set [1] (from C=CCCCC1C(OC(=O)N[C@H](C(=O)N2C[C@H](Oc3nc4cc(OC)ccc4nc3C=C)[C@@H](C)[C@H]2C(=O)OC(C)(C)C)C(C)(C)C)CC2CC21, 2.91 mM, 85.0 °C, 1.75 h), the ring closure, yield of all isomers was determined as 33.1%.
`CC[C@@H]1[C@@H]2CN(C(=O)[C@H](C3CCCCC3)NC(=O)O[C@@H]3C[C@H]3CCCCCc3nc4ccc(OC)cc4nc3O2)[C@@H]1C(=O)N[C@]1(C(=O)NS(=O)(=O)C2(C)CC2)C[C@H]1C(F)F` [Example 16, (1aR,5S,8S,9S,10R,22aR)-5-cyclohexyl-N-[(1R,2R)-2-(difluoromethyl)-1-{[(1-methylcyclopropyl)sulfonyl]carbamoyl}cyclopropyl]-9-ethyl-14-methoxy-3,6-dioxo-1,1a,3,4,5,6,9,10,18,19,20,21,22,22a-tetradecahydro-8H-7,10-methanocyclopropa[18,19][1,10,3,6]dioxadiazacyclononadecino[11,12-b]quinoxaline-8-carboxamide] had a pKi on NS3 genotype 1b protease of 10.05. Also, the pEC50 in data set [2] was 8.24; in data set [3], 7.66; in data set [4] it was 8.03; in data set [5], 7.21.
With `COc1ccc2nc3c(nc2c1)O[C@H]1CN(C(=O)[C@H](C(C)(C)C)NC(=O)O[C@@H]2C[C@H]2CCCCC3)[C@H](C(=O)N[C@]2(C(=O)NS(=O)(=O)C3(C)CC3)C[C@H]2C(F)F)[C@@H]1C` [Example 18, (1aR,5S,8S,9S,10R,22aR)-5-tert-butyl-N-[(1R,2R)-2-(difluoromethyl)-1-{[(1-methylcyclopropyl)sulfonyl]carbamoyl}cyclopropyl]-14-methoxy-9-methyl-3,6-dioxo-1,1a,3,4,5,6,9,10,18,19,20,21,22,22a-tetradecahydro-8H-7,10-methanocyclopropa[18,19][1,10,3,6]dioxadiazacyclononadecino[11,12-b]quinoxaline-8-carboxamide], the values for the pEC50 in data set [2], in data set [4] and in data set [5] were 8.92, 8.64 and 7.62, respectively.
Take `CC[C@@H]1[C@@H]2CN(C(=O)[C@H](C(C)(C)C)NC(=O)O[C@@H]3C[C@H]3CC/C=C/C(F)(F)c3nc4ccc(C#N)cc4nc3O2)[C@@H]1C(=O)N[C@]1(C(=O)NS(=O)(=O)C2(C)CC2)C[C@H]1C(F)F` [Example 84, (1aR,5S,8S,9S,10R,19E,22aR)-5-tert-butyl-14-cyano-N-[(1R,2R)-2-(difluoromethyl)-1-{[(1-methylcyclopropyl)sulfonyl]carbamoyl}cyclopropyl]-9-ethyl-18,18-difluoro-3,6-dioxo-1,1a,3,4,5,6,9,10,18,21,22,22a-dodecahydro-8H-7,10-methanocyclopropa[18,19][1,10,3,6]dioxadiazacyclononadecino[11,12-b]quinoxaline-8-carboxamide]: the values for the pKi on NS3 genotype 1b protease and at NS3 genotype 3a protease were 10.40 and 10.10, respectively.
